Test results reported in ChEMBL document CHEMBL2074177, “Antifolate resistance mediated by the multidrug resistance proteins MRP1 and MRP2” (Cancer Res, 1999).

Molecular target: ATP-binding cassette sub-family C member 2 (Homo sapiens, UniProt Q92887)
Experiment: TP_TRANSPORTER: uptake in membrane vesicle from MRP2-expressing 2008 cells
Format: functional, cell membranes

Chain of ATP-binding cassette sub-family C member 2 (Q92887 whole entry): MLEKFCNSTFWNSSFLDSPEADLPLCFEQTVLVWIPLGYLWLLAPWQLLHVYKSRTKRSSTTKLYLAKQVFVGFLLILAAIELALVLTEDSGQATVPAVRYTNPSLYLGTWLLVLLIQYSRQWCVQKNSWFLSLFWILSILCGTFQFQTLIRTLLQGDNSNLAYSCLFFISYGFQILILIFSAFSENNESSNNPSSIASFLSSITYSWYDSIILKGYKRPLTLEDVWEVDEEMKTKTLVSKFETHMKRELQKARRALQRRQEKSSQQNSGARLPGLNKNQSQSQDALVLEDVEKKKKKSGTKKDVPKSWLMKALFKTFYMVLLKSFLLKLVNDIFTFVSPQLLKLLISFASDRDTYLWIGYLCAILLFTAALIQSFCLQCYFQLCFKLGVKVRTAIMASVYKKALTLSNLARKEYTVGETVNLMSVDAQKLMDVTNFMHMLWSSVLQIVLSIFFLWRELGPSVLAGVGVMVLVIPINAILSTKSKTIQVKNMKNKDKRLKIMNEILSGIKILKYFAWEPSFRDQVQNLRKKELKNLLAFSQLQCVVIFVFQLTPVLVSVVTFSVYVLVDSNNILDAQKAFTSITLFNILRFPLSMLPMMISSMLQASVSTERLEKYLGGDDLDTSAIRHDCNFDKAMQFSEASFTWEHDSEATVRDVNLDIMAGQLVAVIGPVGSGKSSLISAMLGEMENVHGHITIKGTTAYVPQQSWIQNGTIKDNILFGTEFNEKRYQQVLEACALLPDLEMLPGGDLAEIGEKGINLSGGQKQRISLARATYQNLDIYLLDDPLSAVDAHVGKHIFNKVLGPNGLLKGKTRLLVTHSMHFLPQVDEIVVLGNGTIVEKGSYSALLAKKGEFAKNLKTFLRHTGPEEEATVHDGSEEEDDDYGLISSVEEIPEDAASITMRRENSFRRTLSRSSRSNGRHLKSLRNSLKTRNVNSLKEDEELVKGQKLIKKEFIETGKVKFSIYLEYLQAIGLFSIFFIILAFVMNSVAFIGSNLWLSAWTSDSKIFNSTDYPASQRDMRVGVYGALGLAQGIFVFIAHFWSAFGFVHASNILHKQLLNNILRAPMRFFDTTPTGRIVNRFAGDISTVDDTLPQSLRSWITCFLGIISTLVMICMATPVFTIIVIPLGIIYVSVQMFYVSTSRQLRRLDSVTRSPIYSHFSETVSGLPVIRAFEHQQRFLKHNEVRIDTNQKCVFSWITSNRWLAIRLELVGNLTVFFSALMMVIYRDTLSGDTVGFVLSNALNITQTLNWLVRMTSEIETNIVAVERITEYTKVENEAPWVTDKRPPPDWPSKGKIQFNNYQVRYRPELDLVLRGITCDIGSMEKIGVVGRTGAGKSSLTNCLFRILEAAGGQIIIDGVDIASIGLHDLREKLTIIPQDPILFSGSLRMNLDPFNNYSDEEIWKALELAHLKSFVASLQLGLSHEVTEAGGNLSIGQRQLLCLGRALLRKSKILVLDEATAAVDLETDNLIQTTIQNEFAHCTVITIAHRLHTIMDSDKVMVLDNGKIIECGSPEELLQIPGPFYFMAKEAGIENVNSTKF

- Activity: substrate [+]
SMILES: CN(Cc1cnc2nc(N)nc(N)c2n1)c1ccc(C(=O)N[C@@H](CCC(=O)O)C(=O)O)cc1 [METHOTREXATE]
